In patent publication US5137897A, “2-substituted 4-(3-alkyl-5-tert.-butyl-4-hydroxyphenyl) thiazoles, processes for their preparation, pharmaceuticals containing them and their use” (Hoechst Aktiengesllschaft, priority 1989, dated 1992):
Like-named read-outs stand apart in the source and are kept apart here.

Tests used:
[1] = system: Adjuvant arthritis (paw volume increase) in rats; assay: Adjuvant arthritis (method of Pearson), antiinflammatory action on the 5th day; type: in vivo, rat (male, Wistar-Lewis strain); details: Rattus norvegicus, 120 h; for inhibition in vivo at 50 mg/kg: po, 50 mg/kg p.o. once daily, 1st to 5th day, vs untreated control, read-out: Adjuvant arthritis (% inhibition at 50 mg/kg orally); for ED50: adjuvant arthritis, oral, determined graphically from dose-response curve
Protocol: The testing of the compounds of the formula I according to the invention for antiinflammatory action, influence on immunopathological processes, oxygen free radicaldeactivating properties and influence on arachidonic acid metabolism was carried out in the animal models and bioassays described in the following.
1. Adjuvant arthritis for influencing the antiinflammatory action (Table 2)
(§1) The investigations were carried out by the method of Pearson (Arthrit. Rheum. 1959, 2, 44). Male rats of a Wistar-Lewis strain having a body weight between 130 and 200 g were used as experimental animals. The compounds to be tested were administered orally (p. o.) once daily from the 1st to the 5th experimental day in doses of 50 mg per kg of body weight. The animals of one control group received only the vehicle. Each preparation group and the control group comprised 8 animals. The percentage reduction of the paw volume increase compared to that of the untreated control group was used as the criterion of action. The ED50 values were determined graphically from the dose-response curve.
(§2) 4-(3,5-Di-tert.-butyl-4-hydroxyphenyl)-2-methylthiazole i.e. the compound of the formula [drawing 26] according to US-A-4,535,165 mentioned at the beginning, was additionally included in this and the investigation below as a comparison preparation.

[2] = system: Adjuvant arthritis (Perper modification; paw volume) in rats; assay: Adjuvant arthritis (Perper modification), paw volume on the 21st day; type: in vivo, rat (male, Wistar-Lewis strain); details: for inhibition in vivo at 50 mg/kg: Rattus norvegicus, po, 504 h, 50 mg/kg/day, 1st to 12th day
Protocol: as §1, §2
a) Adjuvant arthritis (Perper modification)
The animals were only treated from the 1st to the 12th experimental day in the experimental arrangement described in item 1. After a treatment-free interval of 9 days, determination of the paw volume of the left and right hind paw was carried out on the 21st day (compare Table 3).

[3] = Free radical scavenger properties (reaction with DPPH); details: reaction with DPPH at 20° C.; determined graphically
Protocol: a) Free radical scavenger properties The testing in this test, which allows conclusions on the antioxidative potential of a substance, was carried out according to Smith et al., Biochem, Pharmacol. 1987. 36, 1456. In this test, the reaction of the compounds according to the invention with the stable free radical 1,1-diphenyl-2-picrylhydrazyl (DPPH) is monitored optically at 20° C. The rate constant K and reaction orders n in Table 5 were determined graphically in the customary manner.

[4] = system: Arthus reaction (paw volume increase) in rats; assay: Reverse passive Arthus reaction; type: in vivo, rat (male Sprague-Dawley)
Protocol: b) Reverse passive Arthus reaction
Male Sprague-Dawley rats having a body weight between 100 and 120 g. which had been divided into groups of 8 animals in each case, were used as experimental animals. The animals received a subplantar injection in the left hind paw of 0.5 mg of immunoglobulin in 0.1 ml of a sodium chloride solution 1 hour after oral administration of the test substance. After 4 hours, the Arthus reaction was measured, the percentage change in the paw volume increase compared to that of the control group treated only with vehicle being used as a measuring parameter for the action.

[5] = system: LTB4 formation in human neutrophils; assay: Influence on LTB4 formation in human neutrophils; type: cell-based; details: Neutrophil
Protocol: (§3) Moreover, the substances according to the invention were also characterized in cellular leukocyte systems in vitro as inhibitors of arachidonic acid metabolites. To detect the lipoxygenase metabolites, human neutrophils stimlated by calcium ionophore A 23 187 (70 mcmol/1) were incubated with ^14 C-arachidonic acid (81 mcmol/1) and the principal metabolites formed after 15 minutes at 37° C., such as 5-hydroxyeicosatetraenoic acid (5-HETE) and the more strongly proinflammatory leukotriene B4 (LTB4) were determined quantitatively (Tab. 6) with the aid of a radio monitor after separation by HPLC. The influence on the proinflammatory arachiconic acid metabolites thromboxane and LTB4 in cultures prepared from rat mast cells was determined in a corresponding manner (Tab. 7).

[6] = system: 5-HETE formation in human neutrophils; assay: Influence on 5-HETE formation in human neutrophils; type: cell-based; details: Neutrophil
Protocol: as §3

lipoxygenase = target: T1, lipoxygenase (Glycine max, UniProt P08170); assay: Lipoxygenase (enzyme) inhibition in vitro; type: biochemical; details: at 50 μM
T1 construct: purchased Sigma, Deisenhofen, Germany L7127
T1 sequence (P08170 1-839): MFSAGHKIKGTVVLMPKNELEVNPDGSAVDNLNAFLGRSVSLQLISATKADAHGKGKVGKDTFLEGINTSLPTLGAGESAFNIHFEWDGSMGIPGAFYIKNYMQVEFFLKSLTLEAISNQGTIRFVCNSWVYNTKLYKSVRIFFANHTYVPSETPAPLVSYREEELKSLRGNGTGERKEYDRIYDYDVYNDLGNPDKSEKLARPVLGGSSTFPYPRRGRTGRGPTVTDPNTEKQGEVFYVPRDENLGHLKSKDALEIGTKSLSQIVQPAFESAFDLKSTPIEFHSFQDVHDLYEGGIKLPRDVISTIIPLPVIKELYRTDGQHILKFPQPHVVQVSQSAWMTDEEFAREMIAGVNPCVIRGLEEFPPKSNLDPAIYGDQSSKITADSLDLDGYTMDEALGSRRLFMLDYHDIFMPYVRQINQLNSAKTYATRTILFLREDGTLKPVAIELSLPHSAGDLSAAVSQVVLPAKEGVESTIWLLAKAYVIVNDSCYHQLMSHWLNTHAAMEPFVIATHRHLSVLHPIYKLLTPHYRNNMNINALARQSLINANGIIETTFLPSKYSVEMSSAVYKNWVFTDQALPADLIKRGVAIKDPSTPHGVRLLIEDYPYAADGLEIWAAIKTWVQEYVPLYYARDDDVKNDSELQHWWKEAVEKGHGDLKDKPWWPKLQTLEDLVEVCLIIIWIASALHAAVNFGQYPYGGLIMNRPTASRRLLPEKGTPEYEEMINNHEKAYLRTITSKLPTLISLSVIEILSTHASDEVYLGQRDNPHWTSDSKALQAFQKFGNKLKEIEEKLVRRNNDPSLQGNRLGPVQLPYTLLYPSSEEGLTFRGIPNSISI
Protocol: The inhibitory action of the compounds according to the invention is measured on the in vitro arachidonic acid degradation catalyzed by cyclooxycenase and lipoxycenase with the aid of the test systems described in Weithmann and Alpermann, Arzneim.-Forsch. 1985, 35, 947: The cyclooxygenase-catalyzed synthesis of prostaglandins from arachidonic acid is measured in the microsomal cyclooxygenase system (fraction from sheep seminal vesicles, Paesel, Frankfurt, Germany). The coenzyme is adrenaline, whose conversion to adrenochrome is monitored by spectrophotometry at 492 nm. Cis-9-cis-12-linoleic acid is incubated with lipoxygenase (L7127, Sigma, Deisenhofen, Germany) in the lipoxygenase system in vitro and the formation of conjugated double bonds taking place during the oxygenation reaction is monitored optically at 234 nm.
The inhibitor actions, or the inhibitor concentrations necessary for a 50 % inhibition of enzyme activity (IC50 values), have been determined for the following examples according to the invention: […]

[7] = system: Adjuvant arthritis (Perper modification; paw volume) in rats; assay: Adjuvant arthritis (Perper modification), paw volume on the 21st day; type: in vivo, rat (male, Wistar-Lewis strain); details: Rattus norvegicus, po, 504 h, 1st to 12th day; for inhibition in vivo at 5 mg/kg: 5 mg/kg/day; for inhibition in vivo at 10 mg/kg: 10 mg/kg/day
[8] = read-out: % inhibition on the 21st day, Left paw
[9] = read-out: % inhibition on the 21st day, Right paw

| Structure (SMILES) | inhibition in vivo at 50 mg/kg [1] [%] | inhibition in vivo at 50 mg/kg [2, 8] [%] | inhibition in vivo at 50 mg/kg [2, 9] [%] | reaction order n [3] | further results |
| --- | --- | --- | --- | --- | --- |
| Cc1nc(-c2cc(C(C)(C)C)c(O)c(C(C)(C)C)c2)cs1 [Comparison preparation, 4-(3,5-Di-tert.-butyl-4-hydroxyphenyl)-2-methylthiazole, reference compound] | 67 | 12 | 21 |  | action in the Perper modification of adjuvant arthritis (in words) ([2]; comparison with preparation from US-A-4,535,165): only a suggested action |
| CCOC(=O)CCc1nc(-c2cc(C(C)(C)C)c(O)c(C(C)(C)C)c2)cs1 [Example 1, Ethyl 3-[4-(3,5-di-tert.-butyl-4-hydroxyphenyl)thiazol-2-yl]propionate] | 73 | 45 | 49 | < 1 | ED50 [1]: 5.7 mg/kg |
| CCOC(=O)C=Cc1nc(-c2cc(C(C)(C)C)c(O)c(C(C)(C)C)c2)cs1 [Example 2, Ethyl 3-[4-(3,5-di-tert.-butyl-4-hydroxyphenyl)thiazol-2-yl]acrylate] |  |  |  | 1 |  |
| CC(C)(C)c1cc(-c2csc(C=C3CCNC3=O)n2)cc(C(C)(C)C)c1O [Example 4, 3-[4-(3,5-Di-tert.-butyl-4-hydroxyphenyl)thiazol-2-ylmethylidene]pyrrolidin-2-one] | 54 |  |  |  |  |
| CC(C)(C)c1cc(-c2csc(C=NOCC(=O)O)n2)cc(C(C)(C)C)c1O [Example 5] | 51 | 20 | 42 |  | % inhibition (Arthus reaction) ([4]; 60 mg/kg orally): 38% |
| CC(C)(OCc1nc(-c2cc(C(C)(C)C)c(O)c(C(C)(C)C)c2)cs1)C(=O)O [Example 6] | 70 |  |  |  |  |
| CC(C)(C)c1cc(-c2csc(CC(=O)O)n2)cc(C(C)(C)C)c1O [Example 9] |  |  |  | < 1 | activity at 0.1 µM ([5]; 0.1 μM, n = 6, read-out: LTB4 formation, Residual activity (%)): 70 ± 12%; activity at 1 µM ([5]; 1 μM, n = 6, read-out: LTB4 formation, Residual activity (%)): 79 ± 11%; activity at 10 µM ([5]; 10 μM, n = 6, read-out: LTB4 formation, Residual activity (%)): 73 ± 12%; activity at 100 µM ([5]; 100 μM, n = 9, read-out: LTB4 formation, Residual activity (%)): 20.5 ± 11%; activity at 0.1 µM ([6]; 0.1 μM, n = 6, read-out: 5-HETE formation, Residual activity (%)): 91.5 ± 10%; activity at 1 µM ([6]; 1 μM, n = 6, read-out: 5-HETE formation, Residual activity (%)): 80 ± 8%; activity at 10 µM ([6]; 10 μM, n = 6, read-out: 5-HETE formation, Residual activity (%)): 75 ± 13%; activity at 100 µM ([6]; 100 μM, n = 9, read-out: 5-HETE formation, Residual activity (%)): 21 ± 8% |
| CC(C)(C)c1cc(-c2csc(CCCC(=O)O)n2)cc(C(C)(C)C)c1O [Example 10] | 71 |  |  |  |  |
| CC(C)(C)c1cc(-c2csc(C=CC(=O)O)n2)cc(C(C)(C)C)c1O [Example 11] | 63 | 44 | 51 | 1 | ED50 [1]: 12.6 mg/kg |
| COC(=O)C=Cc1nc(-c2cc(C(C)(C)C)c(O)c(C(C)(C)C)c2)cs1 [Example 12] |  |  |  | 1 | inhibition at 50 µM (lipoxygenase): 73% |
| COC(=O)CCc1nc(-c2cc(C(C)(C)C)c(O)c(C(C)(C)C)c2)cs1 [Example 13] | 74 | 44 | 31 | 1 |  |
| CCOC(=O)CCc1nc(-c2cc(C(C)(C)C)c(O)c(C(C)(C)C)c2)c(C)s1 [Example 14] | 61 | 22 | 49 |  |  |
| Cc1cc(-c2csc(CCC(=O)O)n2)cc(C(C)(C)C)c1O [Example 17] | 67 | 60 | 38 |  | ED50 [1]: 7.5 mg/kg |
| CC(C)(C)c1cc(-c2csc(CSCC(=O)O)n2)cc(C(C)(C)C)c1O [Example 18] |  |  |  | 1 | % inhibition (Arthus reaction) ([4]; 100 mg/kg orally): 50% |
| CN(O)C(=O)CCc1nc(-c2cc(C(C)(C)C)c(O)c(C(C)(C)C)c2)cs1 [Example 19] | 75 |  |  | < 1 | ED50 [1]: 2.5 mg/kg; % inhibition (Arthus reaction) ([4]; 50 mg/kg orally): 45%; inhibition in vivo at 5 mg/kg [7, 8]: 59%; inhibition in vivo at 5 mg/kg [7, 9]: 70%; inhibition in vivo at 10 mg/kg [7, 8]: 72%; inhibition in vivo at 10 mg/kg [7, 9]: 85% |
| CONC(=O)CCc1nc(-c2cc(C(C)(C)C)c(O)c(C(C)(C)C)c2)cs1 [Example 20] | 66 | 50 | 35 |  |  |
| CC(C)(C)c1cc(-c2csc(CCC(=O)Nc3nn[nH]n3)n2)cc(C(C)(C)C)c1O [Example 21] | 65 | 42 | 54 | 1 | % inhibition (Arthus reaction) ([4]; 50 mg/kg orally): 48% |
